Active and inactive are the calls of the source. The rule behind the calls is not given here.

Series [1] concerns PC-12. Description: Neuroprotective activity against H2O2-induced apoptosis in rat PC12 cells assessed as late apoptotic cells at 10 uM after 24 hrs by Annexin V-FITC/propidium iodide staining-based flow cytometry (reference value: 25.3%). Type of series: functional. (In general: Flow cytometry measures light scatter and fluorescence of single cells or particles in a stream.)

In series [2] the target is Acetylcholinesterase (Electrophorus electricus, UniProt O42275). Description: Inhibition of electric eel AChE using acetylthiocholine chloride as substrate incubated for 5 mins followed by substrate addition measured after 180 secs by Ellman's method.
Series [3] relates to PC-12. Kind of series: Neuroprotective activity against H2O2-induced apoptosis in rat PC12 cells assessed as early apoptotic cells at 10 uM after 24 hrs by Annexin V-FITC/propidium iodide staining-based flow cytometry (reference value: 1.4%). Type of series: functional.
Series [4] deals with PC-12. Description: Neuroprotective activity against H2O2-induced apoptosis in rat PC12 cells assessed as viable cells at 10 uM after 24 hrs by Annexin V-FITC/propidium iodide staining-based flow cytometry (reference value: 68.4%). Format: functional. As to conditions: PC-12, 24 h, read-out: Activity.
Series [5] has as its system PC-12. Kind of series: Neuroprotective activity against H2O2-induced apoptosis in rat PC12 cells assessed as necrotic cells at 5 uM after 24 hrs by Annexin V-FITC/propidium iodide staining-based flow cytometry (reference value: 4.9%). Format: functional.
Series [6] has as its target T1, Acetylcholinesterase (Homo sapiens, UniProt P22303). Kind of series: Inhibition of human erythrocyte AChE using acetylthiocholine chloride as substrate incubated for 5 mins followed by substrate addition measured after 180 secs by Ellman's method. (Ellman's reagent forms a yellow product with free thiols.)
The next series deals with Cholinesterase (Homo sapiens, UniProt P06276). Description: Inhibition of human serum BuChE at 100 uM using butyrylthiocholine iodide as substrate incubated for 5 mins followed by substrate addition measured after 180 secs by Ellman's method relative to control.
The next series is filed under the species Homo sapiens. Kind of series: Selectivity index, ratio of IC50 for human serum BuChE to IC50 for human erythrocyte AChE.
For series [7], the system named is PC-12. Description: Neuroprotective activity against H2O2-induced apoptosis in rat PC12 cells assessed as necrotic cells at 2.5 uM after 24 hrs by Annexin V-FITC/propidium iodide staining-based flow cytometry (reference value: 4.9%). Format: functional.
In series [8] the test system is PC-12. Description: Neuroprotective activity against H2O2-induced apoptosis in rat PC12 cells assessed as late apoptotic cells at 2.5 uM after 24 hrs by Annexin V-FITC/propidium iodide staining-based flow cytometry (reference value: 25.3%). Format: functional.
Series [9] deals with T1, Acetylcholinesterase. Description: Mixed-type inhibition of human AChE using acetylthiocholine chloride as substrate incubated for 5 mins followed by substrate addition by Lineweaver-Burk plot analysis.
Series [10] has as its system PC-12. Kind of series: Neuroprotective activity against H2O2-induced apoptosis in rat PC12 cells assessed as viable cells at 2.5 uM after 24 hrs by Annexin V-FITC/propidium iodide staining-based flow cytometry (reference value: 68.4%). Format: functional. As to conditions: PC-12, 24 h, read-out: Activity.
Series [11] has as its system PC-12. Kind of series: Neuroprotective activity against H2O2-induced oxidative stress in rat PC12 cells assessed as increase in cell viability pretreated for 4 hrs followed by H2O2 challenge measured after 24 hrs by MTT assay. Format: functional, cell-based. For orientation: Tetrazolium dyes change colour on reduction, which living cells bring about.
In series [12] the test system is PC-12. Description: Cytotoxicity against rat PC12 cells assessed as decrease in cell viability at 20 uM after 24 hrs by MTT assay. Format: cell-based. Conditions: pc-12, 24 h.
Series [13] deals with T2, Amine oxidase [flavin-containing] A (Homo sapiens, UniProt P21397).
T2 sequence (P21397 whole entry): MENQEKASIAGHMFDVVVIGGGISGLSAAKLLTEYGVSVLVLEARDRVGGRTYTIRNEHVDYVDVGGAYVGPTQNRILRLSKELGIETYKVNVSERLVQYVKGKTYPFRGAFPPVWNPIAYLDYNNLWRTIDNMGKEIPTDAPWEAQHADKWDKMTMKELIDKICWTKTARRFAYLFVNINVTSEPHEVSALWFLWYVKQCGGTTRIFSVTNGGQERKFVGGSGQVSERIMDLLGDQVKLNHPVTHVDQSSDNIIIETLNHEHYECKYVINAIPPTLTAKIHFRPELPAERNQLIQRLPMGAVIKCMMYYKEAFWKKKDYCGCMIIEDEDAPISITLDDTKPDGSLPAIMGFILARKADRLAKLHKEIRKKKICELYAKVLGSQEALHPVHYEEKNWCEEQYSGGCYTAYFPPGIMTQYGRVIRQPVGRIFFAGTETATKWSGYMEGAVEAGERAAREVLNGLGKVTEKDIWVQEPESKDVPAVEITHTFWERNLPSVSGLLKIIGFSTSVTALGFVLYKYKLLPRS
Description: Inhibition of human MAO-A using p-tyramine as substrate incubated for 15 mins followed by substrate addition measured for 20 mins by fluorescence assay.

Series [14] concerns the target T3, Amine oxidase [flavin-containing] B (Homo sapiens, UniProt P27338).
T3 sequence (P27338 whole entry): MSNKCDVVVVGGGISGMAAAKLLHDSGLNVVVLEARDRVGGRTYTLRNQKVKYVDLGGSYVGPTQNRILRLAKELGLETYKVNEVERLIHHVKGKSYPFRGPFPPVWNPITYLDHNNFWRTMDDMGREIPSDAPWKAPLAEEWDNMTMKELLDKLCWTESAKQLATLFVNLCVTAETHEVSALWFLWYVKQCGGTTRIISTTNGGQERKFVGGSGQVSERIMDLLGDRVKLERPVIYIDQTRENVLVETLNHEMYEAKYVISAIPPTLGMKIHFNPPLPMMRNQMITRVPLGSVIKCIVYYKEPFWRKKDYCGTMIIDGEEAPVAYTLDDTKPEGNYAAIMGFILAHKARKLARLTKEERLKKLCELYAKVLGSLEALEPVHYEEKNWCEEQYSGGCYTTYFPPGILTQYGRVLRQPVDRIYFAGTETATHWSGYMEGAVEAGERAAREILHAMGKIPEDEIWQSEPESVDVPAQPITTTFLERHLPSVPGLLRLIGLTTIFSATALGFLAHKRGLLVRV
Description: Inhibition of human MAO-B using p-tyramine as substrate incubated for 15 mins followed by substrate addition measured for 20 mins by fluorescence assay.

In series [15] the test system is BV-2. Description: Antineuroinflammatory activity in mouse BV2 cells assessed as inhibition of LPS-induced NO production at 10 to 30 uM after 24 hrs by Griess assay. Format: functional, cell-based.
Series [16] deals with BV-2. Kind of series: Inhibition of LPS-induced intracellular ROS production in mouse BV2 cells assessed as mean fluorescence intensity at 20 uM incubated with LPS for 18 hrs followed by compound addition measured after 36 hrs by DCFH-DA probe based flow cytometry (reference value: 493530). Format: functional.
The nature of series [17]: Effective permeability of the compound at […] after 16 hrs by PAMPA-BBB assay. Format: ADME. Conditions: read-out: Peff.
Series [18] concerns Mus musculus. Description: Acute toxicity in mouse assessed as mortality at 677 to 2000 mg/kg, po measured continuously for first 4 hrs and intermittently for next 24 hrs and occasionally for 14 days. Conditions: in vivo. Type of series: organism-based.
Series [19] relates to Mus musculus. Description: Acute toxicity in mouse assessed as abnormal changes in water or food consumption at 677 to 2000 mg/kg, po measured continuously for first 4 hrs and intermittently for next 24 hrs and occasionally for 14 days. Type of series: organism-based. Conditions: in vivo.
The subject of series [20] is Mus musculus. Description: Acute toxicity in mouse assessed as abnormal changes in heart at 2000 mg/kg, po measured continuously for first 4 hrs and intermittently for next 24 hrs and occasionally for 14 days by hematoxylin and eosin staining based microscopic method. Format: organism-based. Conditions: in vivo.
The subject of series [21] is Mus musculus. Description: Toxicity in ICR mouse assessed as diarrhea at 5 to 10 mg/kg, po administered for 10 consecutive days. Type of series: organism-based. Conditions: in vivo.

T1 sequence (P22303 whole entry): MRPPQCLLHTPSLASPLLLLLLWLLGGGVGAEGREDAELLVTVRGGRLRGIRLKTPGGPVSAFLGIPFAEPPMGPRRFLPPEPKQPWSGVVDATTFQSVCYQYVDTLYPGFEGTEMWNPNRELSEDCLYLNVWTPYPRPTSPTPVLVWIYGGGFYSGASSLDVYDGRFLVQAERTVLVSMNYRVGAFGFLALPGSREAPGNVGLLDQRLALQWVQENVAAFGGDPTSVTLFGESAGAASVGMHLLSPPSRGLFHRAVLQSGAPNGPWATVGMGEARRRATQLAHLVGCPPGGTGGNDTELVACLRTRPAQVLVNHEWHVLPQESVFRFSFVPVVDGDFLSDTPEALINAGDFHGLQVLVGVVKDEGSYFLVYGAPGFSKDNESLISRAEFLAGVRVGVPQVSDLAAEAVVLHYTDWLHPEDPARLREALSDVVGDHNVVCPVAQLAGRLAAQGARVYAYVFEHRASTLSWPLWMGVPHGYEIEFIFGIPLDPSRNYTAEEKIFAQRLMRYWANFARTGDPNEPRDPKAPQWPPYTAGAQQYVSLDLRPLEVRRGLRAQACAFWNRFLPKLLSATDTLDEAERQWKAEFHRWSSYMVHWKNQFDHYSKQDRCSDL
Sequence of Acetylcholinesterase (Electrophorus electricus, UniProt O42275) (O42275 whole entry): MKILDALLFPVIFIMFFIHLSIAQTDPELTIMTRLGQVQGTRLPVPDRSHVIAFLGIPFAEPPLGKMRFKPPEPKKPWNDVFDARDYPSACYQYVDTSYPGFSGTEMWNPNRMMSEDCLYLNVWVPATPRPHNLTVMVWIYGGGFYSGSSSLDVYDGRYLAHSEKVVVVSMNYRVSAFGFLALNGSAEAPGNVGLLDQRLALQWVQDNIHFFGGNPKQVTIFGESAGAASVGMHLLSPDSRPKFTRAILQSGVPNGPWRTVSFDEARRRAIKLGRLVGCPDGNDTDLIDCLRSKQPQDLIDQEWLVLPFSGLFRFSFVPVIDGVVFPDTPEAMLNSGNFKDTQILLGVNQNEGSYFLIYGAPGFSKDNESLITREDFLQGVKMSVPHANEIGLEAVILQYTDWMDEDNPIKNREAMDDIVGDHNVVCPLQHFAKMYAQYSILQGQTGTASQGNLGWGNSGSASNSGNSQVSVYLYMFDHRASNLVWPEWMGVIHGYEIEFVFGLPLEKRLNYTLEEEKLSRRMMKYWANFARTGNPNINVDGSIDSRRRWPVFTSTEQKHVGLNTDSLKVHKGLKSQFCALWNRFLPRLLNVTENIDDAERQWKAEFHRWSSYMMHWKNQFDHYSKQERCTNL
Sequence of Cholinesterase (P06276 whole entry): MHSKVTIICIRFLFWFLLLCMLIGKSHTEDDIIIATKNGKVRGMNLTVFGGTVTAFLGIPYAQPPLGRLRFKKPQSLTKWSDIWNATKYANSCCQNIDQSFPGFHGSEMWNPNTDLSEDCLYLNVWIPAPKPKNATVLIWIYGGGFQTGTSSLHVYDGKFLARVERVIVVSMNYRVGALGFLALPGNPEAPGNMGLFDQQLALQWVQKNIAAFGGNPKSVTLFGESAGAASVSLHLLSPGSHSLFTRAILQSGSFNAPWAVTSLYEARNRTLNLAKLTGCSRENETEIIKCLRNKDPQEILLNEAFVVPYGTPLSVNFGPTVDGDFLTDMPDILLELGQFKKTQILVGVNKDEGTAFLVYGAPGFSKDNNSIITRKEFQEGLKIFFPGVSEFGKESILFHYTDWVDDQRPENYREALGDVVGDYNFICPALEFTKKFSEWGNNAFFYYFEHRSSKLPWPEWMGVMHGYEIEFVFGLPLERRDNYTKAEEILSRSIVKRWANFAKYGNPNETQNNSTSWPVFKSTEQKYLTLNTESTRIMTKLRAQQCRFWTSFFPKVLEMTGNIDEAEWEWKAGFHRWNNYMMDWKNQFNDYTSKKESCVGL

As usually defined, the IC50 is the concentration at which inhibition is half-maximal. The inhibition is the change of the read-out against control, counted positive when it falls. As usually defined, the Ki is a measure of affinity in units of concentration, obtained from inhibition or displacement. A low value points to a stronger hold on the target. Turning to `CC(C)(C)c1cc(/C=C/C(=O)NCCC2CCN(Cc3ccccc3F)CC2)cc(C(C)(C)C)c1O`, the Activity in the series on PC-12 [1] was 5.7%; in the series with PC-12 [3], 0.3%; in the series on PC-12 [5] it was 2.5%; in the series with PC-12 [7] it was 3.5%; in the series on PC-12 [8], 14.8%; with PC-12 [11] it was “Dose-dependent effect”. For the same compound, the Activity entry in the series on PC-12 [12], in the series on Mus musculus [18], with Mus musculus [19], in the series on Mus musculus [20] and with Mus musculus [21] was “Non-Toxic” throughout. For the same compound, the IC50 against Acetylcholinesterase [2] amounted to 75 nM; at Acetylcholinesterase [6] it was 750 nM; in [13] it was 60.2 µM; in [14], 7.4 µM. Also, in the series with PC-12 [4], the viability at 10 µM is 92.4%. Also, the inhibition against Cholinesterase was 38.4%. Further, in the series filed under Homo sapiens, the Ratio IC50 was > 133. Besides, the inhibition constant (Ki) at Acetylcholinesterase [9] came out at 1400 nM. Besides, in the series with PC-12 [10], the viability at 2.5 µM was found to be 81.5%. For the same compound, the inhibition entry with BV-2 [15] is “Active”. Further, the Flu intensity in the series with BV-2 [16] is listed as 310450. For the same compound, the Papp at 16 h in [17] was 5.5 ×10⁻⁶ cm/s.

For the origin of these results see ChEMBL document CHEMBL4270597, “Donepezil-butylated hydroxytoluene (BHT) hybrids as Anti-Alzheimer's disease agents with cholinergic, antioxidant, and neuroprotective properties” (Eur J Med Chem, 2018).
